The test system of this experiment is stable U20S reporter cells harboring Per2-dLuc. As to the kind of experiment: Per2 assay for evaluating the potency of test compounds (circadian luciferase reporter). Particulars: amplitude of Per2-dLuc luminescence vs log concentration. It is filed as cell-based. Here is the method: Compounds were screened by using a high-throughput circadian assay system as previously described in Zhang, E. E. et al. Cell, 2009, 139, 199-210. In brief, stable U20S reporter cells harboring Per2-dLuc were plated at a density of 30,000 cells/well in Corning 96-well, solid white, flat bottom, TC-treated microplates (Corning®), and incubated for 48 hours at 37° C. in the presence of 5% CO2 in a medium of Dulbecco's Modified Eagle Medium (DMEM) supplemented with 10% fetal bovine serum (FBS) and penicillin (100 units/mL)-streptomycin (100 μg/mL). […] DMSO stocks are then serially diluted in DMSO, typically diluting 3-fold for each dilution step. Following the 48 h period, cell culture medium is removed from plated cells and cells are synchronized with 200 μL/well of complete cell culture medium (described above), supplemented with 5 μM forskolin (Tocris®) and 1 mM beetle luciferin (Promega®). Immediately following synchronization, 1 μL of compound dilution is added to each well. Plates are sealed, shaken briefly, and gene expression was monitored by measuring luminescence (Tecan® Infinite M200 or Tecan® Infinite M200 Pro) continuously for a minimum of 3 days at 35° C. Raw luminescence data (counts) are first analyzed using Multicycle™ software (Actimetrics, Inc.) to determine the amplitude (amp), period, and phase (phz) for each compound concentration. The period length for control wells (i.e. no compound, DMSO only) should be 26-30 h. Amp data are then plotted against the logarithm compound concentration (M) and analyzed by nonlinear regression analysis to determine the EC50.

pEC50: −log10 of the molar value.

`C[C@@H]1CCN(C[C@H](O)Cn2c3ccc(F)cc3c3cc(F)ccc32)C1=O` [Compound 116, (R)-1-((R)-3-(3,6-difluoro-9H-carbazol-9-yl)-2-hydroxypropyl)-3-methylpyrrolidin-2-one] had a pEC50 of 6.51. Compound `O=C1N(CC(O)Cn2c3ccc(F)cc3c3cc(F)ccc32)CCCN1C1CCCC1` (centres unmarked) [Compound 76, 1-cyclopentyl-3-(3-(3,6-difluoro-9H-carbazol-9-yl)-2-hydroxypropyl)tetrahydropyrimidin-2(1H)-one] showed a pEC50 of 6.22.

On to `CC(O)(CN1CCC(c2ccccc2)C1=O)Cn1c2ccc(F)cc2c2cc(F)ccc21` (centres unmarked) [Compound 54, 1-(3-(3,6-difluoro-9H-carbazol-9-yl)-2-hydroxy-2-methylpropyl)-3-phenylpyrrolidin-2-one], for which the negative logarithm of the EC50 (pEC50) is 6.09. For the compound `O=C1Nc2ccccc2CN1CC(O)Cn1c2ccc(F)cc2c2cc(F)ccc21` (centres unmarked) [Compound 103, 3-(3-(3,6-difluoro-9H-carbazol-9-yl)-2-hydroxypropyl)-3,4-dihydroquinazolin-2(1H)-one], the negative logarithm of the EC50 (pEC50) is 6.03. The pEC50 values of the last two compounds are within 0.2 log units of each other. `O=C1N(CC(O)Cn2c3ccccc3c3ccccc32)CCCN1C1CC1` (centres unmarked) [Compound 99, 1-(3-(9H-carbazol-9-yl)-2-hydroxypropyl)-3-cyclopropyltetrahydropyrimidin-2(1H)-one] showed a pEC50 of 6.26. Against the preceding compound, the pEC50 is 0.23 log units higher.

Consider `CC(C)C1CCN(CC(O)Cn2c3ccc(F)cc3c3cc(F)ccc32)C1=O` (centres unmarked) [Compound 22, 1-(3-(3,6-difluoro-9H-carbazol-9-yl)-2-hydroxypropyl)-3-isopropylpyrrolidin-2-one], for which the negative-log EC50 (pEC50) is 6.58. Against the preceding compound, the pEC50 is 0.32 log units higher. The value for `O=C1N(CC(O)Cn2c3ccc(F)cc3c3cc(F)ccc32)CCC1(F)F` (centres unmarked) [Compound 58, 1-(3-(3,6-difluoro-9H-carbazol-9-yl)-2-hydroxypropyl)-3,3-difluoropyrrolidin-2-one] was 6.15; that for `CCC1CCC(=O)N1CC(O)Cn1c2ccc(F)cc2c2cc(F)ccc21` (centres unmarked) [Compound 32, 1-(3-(3,6-difluoro-9H-carbazol-9-yl)-2-hydroxypropyl)-5-ethylpyrrolidin-2-one] was 6.27. The value for `C[C@@](O)(CN1CC[C@@H](F)C1=O)Cn1c2ccccc2c2ccccc21` [Compound 123, (R)-1-((S)-3-(9H-carbazol-9-yl)-2-hydroxy-2-methylpropyl)-3-fluoropyrrolidin-2-one] was 6.51; that for `O=C1C(C2CCC2)CCN1CC(O)Cn1c2ccc(F)cc2c2cc(F)ccc21` (centres unmarked) [Compound 50, 3-cyclobutyl-1-(3-(3,6-difluoro-9H-carbazol-9-yl)-2-hydroxypropyl)pyrrolidin-2-one] was 6.69. The compound `CC1CCN(CC(C)(O)Cn2c3ccc(F)cc3c3cc(F)ccc32)C1=O` (centres unmarked) [Compound 30, 1-(3-(3,6-difluoro-9H-carbazol-9-yl)-2-hydroxy-2-methylpropyl)-3-methylpyrrolidin-2-one] gave a negative-log EC50 (pEC50) of 6.05.

The compound `CCC1CCC(=O)N1CC(C)(O)Cn1c2ccc(F)cc2c2cc(F)ccc21` (centres unmarked) [Compound 33, 1-(3-(3,6-difluoro-9H-carbazol-9-yl)-2-hydroxy-2-methylpropyl)-5-ethylpyrrolidin-2-one] had a negative logarithm of the EC50 (pEC50) of 6.20. The compound `O=C1CC(C2CC2)CN1CC(O)Cn1c2ccc(F)cc2c2cc(F)ccc21` (centres unmarked) [Compound 42, 4-cyclopropyl-1-(3-(3,6-difluoro-9H-carbazol-9-yl)-2-hydroxypropyl)pyrrolidin-2-one] showed a pEC50 of 6.38. The figure for `CCC1CC(=O)N(CC(C)(O)Cn2c3ccc(F)cc3c3cc(F)ccc32)C1` (centres unmarked) [Compound 46, 1-(3-(3,6-difluoro-9H-carbazol-9-yl)-2-hydroxy-2-methylpropyl)-4-ethylpyrrolidin-2-one] is 6.21; for `CC1CC(=O)N(CC(O)Cn2c3ccc(F)cc3c3cc(F)ccc32)C1` (centres unmarked) [Compound 43, 1-(3-(3,6-difluoro-9H-carbazol-9-yl)-2-hydroxypropyl)-4-methylpyrrolidin-2-one] it is 5.99.

As for `CCC1CC(=O)N(CC(O)Cn2c3ccc(F)cc3c3cc(F)ccc32)C1` (centres unmarked) [Compound 45, 1-(3-(3,6-difluoro-9H-carbazol-9-yl)-2-hydroxypropyl)-4-ethylpyrrolidin-2-one], the negative logarithm of the EC50 (pEC50) is 7.28. The value for `CCC1CCN(CC(O)Cn2c3ccc(F)cc3c3cc(F)ccc32)C1=O` (centres unmarked) [Compound 17, 1-(3-(3,6-difluoro-9H-carbazol-9-yl)-2-hydroxypropyl)-3-ethylpyrrolidin-2-one] was 6.38; that for `CC1CCCC(=O)N1CC(C)(O)Cn1c2ccc(F)cc2c2cc(F)ccc21` (centres unmarked) [Compound 40, 1-(3-(3,6-difluoro-9H-carbazol-9-yl)-2-hydroxy-2-methylpropyl)-6-methylpiperidin-2-one] was 6.32. The figure for `C[C@@](O)(CN1CC[C@H](F)C1=O)Cn1c2ccccc2c2ccccc21` [Compound 124, (S)-1-((S)-3-(9H-carbazol-9-yl)-2-hydroxy-2-methylpropyl)-3-fluoropyrrolidin-2-one] is 6.51. The compound `C[C@H]1CCC(=O)N(C[C@H](O)Cn2c3ccccc3c3ccccc32)C1` [Compound 129, (S)-1-((R)-3-(9H-carbazol-9-yl)-2-hydroxypropyl)-5-methylpiperidin-2-one] showed a negative logarithm of the EC50 (pEC50) of 6.13.

On to `CC(C)N1CCN(CC(O)Cn2c3ccc(F)cc3c3cc(F)ccc32)C1=O` (centres unmarked) [Compound 90, 1-(3-(3,6-difluoro-9H-carbazol-9-yl)-2-hydroxypropyl)-3-isopropylimidazolidin-2-one], for which the pEC50 is 6.22. The figure for `O=C1N(CC(O)Cn2c3ccc(F)cc3c3cc(F)ccc32)CCCN1C1CC1` (centres unmarked) [Compound 83, 1-cyclopropyl-3-(3-(3,6-difluoro-9H-carbazol-9-yl)-2-hydroxypropyl)tetrahydropyrimidin-2(1H)-one] is 6.83; for `CCN1CCCN(CC(O)Cn2c3ccccc3c3ccccc32)C1=O` (centres unmarked) [Compound 95, 1-(3-(9H-carbazol-9-yl)-2-hydroxypropyl)-3-ethyltetrahydropyrimidin-2(1H)-one] it is 6.25. The compound `CC(O)(CN1CCOCC1=O)Cn1c2ccc(F)cc2c2cc(F)ccc21` (centres unmarked) [Compound 56, 4-(3-(3,6-difluoro-9H-carbazol-9-yl)-2-hydroxy-2-methylpropyl)morpholin-3-one] gave a pEC50 of 5.98. As for `C[C@@H]1CCC(=O)N1C[C@H](O)Cn1c2ccc(F)cc2c2cc(F)ccc21` [Compound 109, (R)-1-((R)-3-(3,6-difluoro-9H-carbazol-9-yl)-2-hydroxypropyl)-5-methylpyrrolidin-2-one], the pEC50 is 6.65. As for `CC1CCCN(CC(O)Cn2c3ccccc3c3ccccc32)C1=O` (centres unmarked) [Compound 64, 1-(3-(9H-carbazol-9-yl)-2-hydroxypropyl)-3-methylpiperidin-2-one], the pEC50 was 6.34. The figure for `O=C1N(CC(O)Cn2c3ccccc3c3ccccc32)CCCC1(F)F` (centres unmarked) [Compound 69, 1-(3-(9H-carbazol-9-yl)-2-hydroxypropyl)-3,3-difluoropiperidin-2-one] is 6.86; for `O=C1NCCCN1CC(O)Cn1c2ccccc2c2ccccc21` (centres unmarked) [Compound 3, 1-(3-(9H-carbazol-9-yl)-2-hydroxypropyl)tetrahydropyrimidin-2(1H)-one] it is 6.52; for `C[C@@H]1CCC(=O)N1C[C@@H](O)Cn1c2ccccc2c2ccccc21` [Compound 113, (R)-1-((S)-3-(9H-carbazol-9-yl)-2-hydroxypropyl)-5-methylpyrrolidin-2-one] it is 6.02.

For the origin of these results see patent US10214507B2, “Carbazole-containing amides, carbamates, and ureas as cryptochrome modulators” (Reset Therapeutics, Inc., priority 2014, dated 2019).
